In patent US20100292316A1, “IMPROVED THERAPEUTIC METHODS AND COMPOSITIONS COMPRISING CHROMAN RING COMPOUNDS” (Research Development Foundation, priority 2007, published 2010):

Assays:
[1] = test system: LNCaP cells; assay: Apoptosis by DAPI staining, LNCaP; assay type: cell-based, human
Procedure: Cells were plated at 2×10^6 in 100 mm cell culture plates, cultured overnight and washed with serum free media before transfection. Plasmids (0.7 μg or 4.2 of μg) or empty vector (pcDNA3) were mixed with 50 μl or 300 μl serum free media and 4 μl or 24 μl PLUS reagent (Invitrogen, CA) and incubated for 15 min at room temperature. Next 2 μl or 12 μl of Lipofectamine reagent (Invitrogen, CA) in 50 μl or 300 μl serum free media were added and the mixture incubated for another 15 min before adding to the cells in 0.5 ml or 5 ml serum free media. Cells were incubated with transfection reagents for 3 h and the growth media containing 2×FBS was added to the cells. Transfected cells were cultured overnight before α-TEA treatment. Transfection efficiency was determined to be 70% using GFP expressing plasmid.
Assessment of apoptosis based on nuclear morphology using 4′, 6-diamidino-2-phenylindole dihydrochloride (DAPI; Boehringer Mannheim Corp. Indianapolis, Ind.) has been described previously (Yu et al., 2003; Israel et al., 2000). Briefly, 1.5×10^5/well LNCaP or PC-3-GFP cells were plated in 12-well tissue culture plates and cultured overnight to allow cells to attach. On the next day, cells were treated with various concentrations of α-TEA and incubated for various time periods. At the end of treatments, cells were collected, washed with PBS, stained with 25 μl of 2 μg/ml DAPI, and viewed under a fluorescent microscope (model ICM 405 with a model 487701 filter, Zeiss). Cells which contained clearly condensed chromatin or fragmented nuclei were scored as apoptotic cells. ≧500 cells were counted in each sample. Apoptotic data are presented as percentage of apoptotic cells±S.D. for three independent experiments.
FOXO1 siRNA used in the study was purchased from Santa Cruz (Santa Cruz, Calif.). […] Transfection of human prostate cancer cells with FOXO1 siRNA or negative control siRNA was performed in 100 mm cell culture dishes at a density of 2×10^6 cells/dish using Lipofectamine 2000 (Invitrogen, Carlsbad, Calif.) and 300 pmol of siRNA duplex, resulting in a final siRNA concentration of 30 nM. siRNA transfected cells were incubated for 48-72 h prior to α-TEA treatment.

[2] = test system: TSP-1; assay: TSP-1 mRNA (RT-PCR) and protein (Western blot) levels in human breast cancer cells; assay type: cell-based; conditions: 40 μM α-TEA; for peak TSP-1 mRNA levels, fold of VEH control: 6 h
Procedure: Whole-cell protein extracts were prepared as described previously (Yu et al., 1999), and 50 μg of protein was loaded per lane, separated using SDS-PAGE on a 10-15% gel under reducing conditions, and electroblotted onto a nitrocellulose membrane ([…] Optitran BA-S-supported nitrocellulose; Schleicher and Schuell, Keene, N.H.). Equal loading was verified using GAPDH antibody. Primary rabbit antibodies with specificity for PARP and primary goat antibody with specificity for Arg were purchased from Santa Cruz Biotechnology (Santa Cruz, Calif.). Horseradish peroxidase conjugated goat anti-rabbit or horseradish goat anti-mouse secondary antibody was purchased from Jackson Immunoresearch Laboratory (West Grove, Pa.). Horseradish peroxidase-conjugated donkey anti-goat serum was purchased from Santa Cruz Biotechnology. Immune complexes were visualized using enhanced chemiluminescence detection (Pierce Chemical Co., Rockford, Ill.). Fold differences in level of chemiluminescence were determined by densitometric analyses.
Total RNA was isolated from cells using RNeasy Protect Mini kit (Qiagen, Valencia, Calif.) according to manufacturer's instruction. Reverse transcription was performed as described above except using 15 μg of total RNA as template. Polymerase chain reaction (PCR) with Arg primers 30 cycles in volumes of 50 μl according to the manufacturer's protocol (Taq PCR Master Mix Kit; Qiagen, Valencia, Calif.). Primers used in the analyses were: Arg, forward (5′-CAGTGATGCCTCCACCTCAA-3′; SEQ ID NO:2) and reverse (5′-TTTCCCTCTCCCCTCAGAAAT-3′; SEQ ID NO:3) and for β-actin (loading control), forward (5′-GGCGGCACCACCATGTACCCT-3′; SEQ ID NO:4) and reverse (5′-AGGGGCCGGACTCGTCATACT-3′; SEQ ID NO:5) (Invitrogen, Carlsbad, Calif.). The amplification reaction involved denaturation at 95° C. for 30 seconds, annealing at 52° C. for 30 seconds, and extension at 72° C. for 30 seconds (for Arg) using a PTC-225 thermal cycler (MJ Research, San Francisco, Calif.). The PCR products were resolved on 1% agarose gels and visualized by ethidium bromide staining.
Western blot analyses with a primary mouse antibody (Calbiochem (San Diego, Calif.)) was used to determine protein levels in treated versus untreated MDA-MB-435 and MCF-7 human breast cancer cells (FIG. 2B). […] 66c1-4-GFP cells are a mouse mammary tumor cell line originally derived from a spontaneous mammary tumor in a Balb/cfC3H mouse and later isolated as a 6-thioguanine-resistant clone. The cells were subsequently stably transfected with the enhanced GFP (Lawson et al., 2003). […] In MCF-7 cells, peak TSP-1 mRNA levels at 6 h were 1.3-fold of the VEH control and peak TSP-1 protein levels at 24 h were 2.4-fold of the VEH control. […]

[3] = test system: FlipL; assay: FlipL protein level by immunoblot; assay type: cell-based, human; conditions: LNCaP and PC-3-GFP cells, 40 μM α-TEA, time-dependent
From the text: Antibodies to human Flip and survivin used in these experiments were purchased from Santa Cruz Biotechnology (Santa Cruz, Calif.).

SMILES: Cc1c(C)c2c(c(C)c1OCC(=O)O)CC[C@@](C)(CCC[C@H](C)CCC[C@H](C)CCCC(C)C)O2 [α-TEA]
- decrease in percentage of apoptotic cells in cells expressing constitutively active Akt1 vs empty vector ([1]; 15 μM α-TEA): 21%
- decrease in percentage of apoptotic cells in cells expressing constitutively active Akt1 vs empty vector ([1]; 20 μM α-TEA): 24%
- decrease in percentage of apoptotic cells in cells expressing constitutively active Akt2 vs empty vector ([1]; 20 μM α-TEA): 10%
- α-TEA-induced apoptosis on overexpression of wild type or constitutively active FOXO1 ([1]; 40 μM α-TEA 15 h, P<0.009): increased
- peak TSP-1 mRNA levels, fold of VEH control ([2]; MCF-7 cells): 1.3 fold
- peak TSP-1 protein levels, fold of VEH control ([2]; MCF-7 cells, 24 h): 2.4 fold
- peak TSP-1 mRNA levels, fold of VEH control ([2]; MDA-MB-435 cells): 1.8 fold
- peak TSP-1 protein levels, fold of VEH control ([2]; MDA-MB-435 cells, 15 h): 4.7 fold
- protein levels of FlipL [3]: downregulated
